The source of these data is patent US20260274829A1, “NEW E3 UBIQUITIN LIGASE LIGAND, PROTEIN DEGRADATION AGENT AND USE THEREOF” (GLUETACS THERAPEUTICS (SHANGHAI) CO., LTD., priority 2023, published 2026).

pIC50: −log10 of the molar value.

T1 sequence (Q96SW2 whole entry): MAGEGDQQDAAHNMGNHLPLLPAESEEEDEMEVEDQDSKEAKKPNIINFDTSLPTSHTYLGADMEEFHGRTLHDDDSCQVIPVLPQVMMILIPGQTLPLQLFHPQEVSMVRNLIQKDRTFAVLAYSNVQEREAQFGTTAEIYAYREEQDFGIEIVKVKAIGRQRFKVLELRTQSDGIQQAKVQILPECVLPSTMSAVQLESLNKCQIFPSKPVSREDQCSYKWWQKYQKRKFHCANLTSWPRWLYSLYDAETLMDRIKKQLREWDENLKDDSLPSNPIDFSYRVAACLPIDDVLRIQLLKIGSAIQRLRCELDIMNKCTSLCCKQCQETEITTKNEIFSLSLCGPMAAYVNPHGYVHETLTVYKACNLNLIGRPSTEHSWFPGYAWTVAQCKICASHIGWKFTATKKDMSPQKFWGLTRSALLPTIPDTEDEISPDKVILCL

This assay addresses T1, human Cereblon WT GST-tagged protein (Homo sapiens, UniProt Q96SW2).
T1 construct: purchased CISBIO 64BDCRBNPEH
In words: CRBN binding, HTRF CEREBLON BINDING kit. The settings on record: CRBN binding, HTRF CEREBLON BINDING kit. Put shortly: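 HTRF competition in which test compounds displace a Thalidomide-Re tracer from GST-tagged human Cereblon WT, detected with a GST Eu antibody. Incubation lasted 3 hours at room temperature, with emission read at 620 and 665 nm. Inhibition rate was derived from 665/620 ratios relative to blank and solvent control wells.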
(TR-FRET usually uses a lanthanide donor and a delayed reading to cut background.)
As a reminder, the pIC50 is the IC50 on a negative log10 scale, so that one unit is a factor of ten. High values mean a small IC50, low ones a large IC50. `COC1CCN(c2nccc(Nc3cc4c(cn3)c(N3CCC(N(C)Cc5cccc(N6CCC(=O)NC6=O)c5)CC3)nn4C(C)C)n2)CC1` [GT-06122, 1-(3-(((1-(1-isopropyl-6-((2-(4-methoxypiperidin-1-yl)pyrimidin-4-yl)amino)-1H-pyrazolo[4,3-c]pyridin-3-yl)piperidin-4-yl)(methyl)amino)methyl)phenyl)dihydropyrimidine-2,4(1H,3H)-dione]: the pIC50 is 5.72 to 6.00.

Consider `COC1CCN(c2nccc(Nc3cc4c(cn3)c(N3CCC(N(C)Cc5cccc(NC6CCC(=O)NC6=O)c5)CC3)nn4C(C)C)n2)CC1` (stereo not shown) [GT-06123, 3-((3-(((1-(1-isopropyl-6-((2-(4-methoxypiperidin-1-yl)pyrimidin-4-yl)amino)-1H-pyrazolo[4,3-c]pyridin-3-yl)piperidin-4-yl)(methyl)amino)methyl)phenyl)amino)piperidine-2,6-dione], for which the negative-log IC50 (pIC50) was 6.00 to 6.30.

In the case of `O=C1CCC(c2ccc(CN3CCN(c4ccc(-c5cc(F)c6c(c5)C(=O)N(C(C(=O)Nc5nccs5)c5ncn7c5CCC7)C6)cc4)CC3)cc2)C(=O)N1` (stereo not shown) [GT-06163, 2-(6,7-dihydro-5H-pyrrolo[1,2-c]imidazol-1-yl)-2-(6-(4-(4-(4-(2,6-dioxopiperidin-3-yl)benzyl)piperazin-1-yl)phenyl)-4-fluoro-1-oxoisoindolin-2-yl)-N-(thiazol-2-yl)acetamide], the pIC50 was 6.00 to 6.30.

Take `O=C1CCN(c2ccc(CN3CCN(c4ccc(-c5cc(F)c6c(c5)C(=O)N(C(C(=O)Nc5nccs5)c5ncn7c5CCC7)C6)cc4)CC3)cc2)C(=O)N1` (stereo not shown) [GT-06164, 2-(6,7-dihydro-5H-pyrrolo[1,2-c]imidazol-1-yl)-2-(6-(4-(4-(4-(2,4-dioxotetrahydropyrimidin-1(2H)-yl)benzyl)piperazin-1-yl)phenyl)-4-fluoro-1-oxoisoindolin-2-yl)-N-(thiazol-2-yl)acetamide]: the pIC50 was 6.00 to 6.30.

The compound `O=C1CCN(c2cccc(CN3CCN(c4ccc(-c5cc(F)c6c(c5)C(=O)N(C(C(=O)Nc5nccs5)c5ncn7c5CCC7)C6)cc4)CC3)c2)C(=O)N1` (stereo not shown) [GT-06165, 2-(6,7-dihydro-5H-pyrrolo[1,2-c]imidazol-1-yl)-2-(6-(4-(4-(3-(2,4-dioxotetrahydropyrimidin-1(2H)-yl)benzyl)piperazin-1-yl)phenyl)-4-fluoro-1-oxoisoindolin-2-yl)-N-(thiazol-2-yl)acetamide] showed a negative logarithm of the IC50 (pIC50) greater than 6.30.

Compound `O=C1CCC(c2ccc(CN3C[C@H]4C[C@@H]3CN4c3ccc(-c4cc(F)c5c(c4)C(=O)N(C(C(=O)Nc4nccs4)c4ncn6c4CCC6)C5)cc3)cc2)C(=O)N1` (stereo partly drawn) [GT-06176, 2-(6,7-dihydro-5H-pyrrolo[1,2-c]imidazol-1-yl)-2-(6-(4-((1R,4R)-5-(4-(2,6-dioxopiperidin-3-yl)benzyl)-2,5-diazabicyclo[2.2.1]heptan-2-yl)phenyl)-4-fluoro-1-oxoisoindolin-2-yl)-N-(thiazol-2-yl)acetamide] had a negative logarithm of the IC50 (pIC50) of 6.00 to 6.30.

For the compound `O=C1CCN(c2ccc(CN3C[C@H]4C[C@@H]3CN4c3ccc(-c4cc(F)c5c(c4)C(=O)N(C(C(=O)Nc4nccs4)c4ncn6c4CCC6)C5)cc3)cc2)C(=O)N1` (stereo partly drawn) [GT-06177, 2-(6,7-dihydro-5H-pyrrolo[1,2-c]imidazol-1-yl)-2-(6-(4-((1R,4R)-5-(4-(2,4-dioxotetrahydropyrimidin-1(2H)-yl)benzyl)-2,5-diazabicyclo[2.2.1]heptan-2-yl)phenyl)-4-fluoro-1-oxoisoindolin-2-yl)-N-(thiazol-2-yl)acetamide], the pIC50 is greater than 6.30.

Consider `O=C1CCN(c2cccc(CN3C[C@H]4C[C@@H]3CN4c3ccc(-c4cc(F)c5c(c4)C(=O)N(C(C(=O)Nc4nccs4)c4ncn6c4CCC6)C5)cc3)c2)C(=O)N1` (stereo partly drawn) [GT-06178, 2-(6,7-dihydro-5H-pyrrolo[1,2-c]imidazol-1-yl)-2-(6-(4-((1R,4R)-5-(3-(2,4-dioxotetrahydropyrimidin-1(2H)-yl)benzyl)-2,5-diazabicyclo[2.2.1]heptan-2-yl)phenyl)-4-fluoro-1-oxoisoindolin-2-yl)-N-(thiazol-2-yl)acetamide], for which the negative logarithm of the IC50 (pIC50) is greater than 6.30.

Turning to `O=C1CCC(Nc2cccc(CN3C[C@H]4C[C@@H]3CN4c3ccc(-c4cc(F)c5c(c4)C(=O)N(C(C(=O)Nc4nccs4)c4ncn6c4CCC6)C5)cc3)c2)C(=O)N1` (stereo partly drawn) [GT-06179, 2-(6,7-dihydro-5H-pyrrolo[1,2-c]imidazol-1-yl)-2-(6-(4-((1R,4R)-5-(3-((2,6-dioxopiperidin-3-yl)amino)benzyl)-2,5-diazabicyclo[2.2.1]heptan-2-yl)phenyl)-4-fluoro-1-oxoisoindolin-2-yl)-N-(thiazol-2-yl)acetamide], the pIC50 was 6.00 to 6.30.

`O=C1CCN(c2ccc(CN3C[C@H]4C[C@@H]3CN4c3ccc(-c4cc(F)c5c(c4)C(=O)N(C(C(=O)Nc4nccs4)c4ncn6c4CCC6)C5)cc3)nc2)C(=O)N1` (stereo partly drawn) [GT-06190, 2-(6,7-dihydro-5H-pyrrolo[1,2-c]imidazol-1-yl)-2-(6-(4-((1R,4R)-5-((5-(2,4-dioxotetrahydropyrimidin-1(2H)-yl)pyridin-2-yl)methyl)-2,5-diazabicyclo[2.2.1]heptan-2-yl)phenyl)-4-fluoro-1-oxoisoindolin-2-yl)-N-(thiazol-2-yl)acetamide] showed a pIC50 of 6.00 to 6.30.

For `O=C1CCN(c2ccc(CN3CCN(c4ccc(-c5cc(F)c6c(c5)C(=O)N(C(C(=O)Nc5nccs5)c5ncn7c5CCC7)C6)cc4)CC3)nc2)C(=O)N1` (stereo not shown) [GT-06229, 2-(6,7-dihydro-5H-pyrrolo[1,2-c]imidazol-1-yl)-2-(6-(4-(4-((5-(2,4-dioxotetrahydropyrimidin-1(2H)-yl)pyridin-2-yl)methyl)piperazin-1-yl)phenyl)-4-fluoro-1-oxoisoindolin-2-yl)-N-(thiazol-2-yl)acetamide], the pIC50 was 6.00 to 6.30.

Compound `O=C1CCC(c2ccc(CN3CCN(C4CCN(c5ccc(-c6cc(F)c7c(c6)C(=O)N(C(C(=O)Nc6nccs6)c6ncn8c6CCC8)C7)cc5)CC4)CC3)cc2)C(=O)N1` (stereo not shown) [GT-06243, 2-(6,7-dihydro-5H-pyrrolo[1,2-c]imidazol-1-yl)-2-(6-(4-(4-(4-(4-(2,6-dioxopiperidin-3-yl)benzyl)piperazin-1-yl)piperidin-1-yl)phenyl)-4-fluoro-1-oxoisoindolin-2-yl)-N-(thiazol-2-yl)acetamide] had a negative-log IC50 (pIC50) greater than 6.30.

`O=C1CCN(c2ccc(CN3CCN(C4CCN(c5ccc(-c6cc(F)c7c(c6)C(=O)N(C(C(=O)Nc6nccs6)c6ncn8c6CCC8)C7)cc5)CC4)CC3)cc2)C(=O)N1` (stereo not shown) [GT-06244, 2-(6,7-dihydro-5H-pyrrolo[1,2-c]imidazol-1-yl)-2-(6-(4-(4-(4-(4-(2,4-dioxotetrahydropyrimidin-1(2H)-yl)benzyl)piperazin-1-yl)piperidin-1-yl)phenyl)-4-fluoro-1-oxoisoindolin-2-yl)-N-(thiazol-2-yl)acetamide]: the pIC50 was 6.00 to 6.30.

Compound `O=C1CCN(c2cccc(CN3CCN(C4CCN(c5ccc(-c6cc(F)c7c(c6)C(=O)N(C(C(=O)Nc6nccs6)c6ncn8c6CCC8)C7)cc5)CC4)CC3)c2)C(=O)N1` (stereo not shown) [GT-06245, 2-(6,7-dihydro-5H-pyrrolo[1,2-c]imidazol-1-yl)-2-(6-(4-(4-(4-(3-(2,4-dioxotetrahydropyrimidin-1(2H)-yl)benzyl)piperazin-1-yl)piperidin-1-yl)phenyl)-4-fluoro-1-oxoisoindolin-2-yl)-N-(thiazol-2-yl)acetamide] showed a pIC50 greater than 6.30.

Consider `O=C1CCN(c2ccc(CN3CCN(C4CCN(c5ccc(-c6cc(F)c7c(c6)C(=O)N(C(C(=O)Nc6nccs6)c6ncn8c6CCC8)C7)cc5)CC4)CC3)nc2)C(=O)N1` (stereo not shown) [GT-06246, 2-(6,7-dihydro-5H-pyrrolo[1,2-c]imidazol-1-yl)-2-(6-(4-(4-(4-((5-(2,4-dioxotetrahydropyrimidin-1(2H)-yl)pyridin-2-yl)methyl)piperazin-1-yl)piperidin-1-yl)phenyl)-4-fluoro-1-oxoisoindolin-2-yl)-N-(thiazol-2-yl)acetamide], for which the negative logarithm of the IC50 (pIC50) was greater than 6.30.

For `O=C1CCC(Nc2cccc(CN3CCN(C4CCN(c5ccc(-c6cc(F)c7c(c6)C(=O)N(C(C(=O)Nc6nccs6)c6ncn8c6CCC8)C7)cc5)CC4)CC3)c2)C(=O)N1` (stereo not shown) [GT-06247, 2-(6,7-dihydro-5H-pyrrolo[1,2-c]imidazol-1-yl)-2-(6-(4-(4-(4-(3-((2,6-dioxopiperidin-3-yl)amino)benzyl)piperazin-1-yl)piperidin-1-yl)phenyl)-4-fluoro-1-oxoisoindolin-2-yl)-N-(thiazol-2-yl)acetamide], the negative-log IC50 (pIC50) was 6.00 to 6.30.

Compound `O=C1CCC(c2ccc(CN3C4CCC3CN(c3ccc(-c5cc(F)c6c(c5)C(=O)N(C(C(=O)Nc5nccs5)c5ncn7c5CCC7)C6)cc3)C4)cc2)C(=O)N1` (stereo not shown) [GT-06252, 2-(6,7-dihydro-5H-pyrrolo[1,2-c]imidazol-1-yl)-2-(6-(4-(8-(4-(2,6-dioxopiperidin-3-yl)benzyl)-3,8-diazabicyclo[3.2.1]octan-3-yl)phenyl)-4-fluoro-1-oxoisoindolin-2-yl)-N-(thiazol-2-yl)acetamide] showed a pIC50 greater than 6.30.

On to `O=C1CCN(c2ccc(CN3C4CCC3CN(c3ccc(-c5cc(F)c6c(c5)C(=O)N(C(C(=O)Nc5nccs5)c5ncn7c5CCC7)C6)cc3)C4)cc2)C(=O)N1` (stereo not shown) [GT-06253, 2-(6,7-dihydro-5H-pyrrolo[1,2-c]imidazol-1-yl)-2-(6-(4-(8-(4-(2,4-dioxotetrahydropyrimidin-1(2H)-yl)benzyl)-3,8-diazabicyclo[3.2.1]octan-3-yl)phenyl)-4-fluoro-1-oxoisoindolin-2-yl)-N-(thiazol-2-yl)acetamide], for which the pIC50 is 6.00 to 6.30.

As for `O=C1CCN(c2cccc(CN3C4CCC3CN(c3ccc(-c5cc(F)c6c(c5)C(=O)N(C(C(=O)Nc5nccs5)c5ncn7c5CCC7)C6)cc3)C4)c2)C(=O)N1` (stereo not shown) [GT-06254, 2-(6,7-dihydro-5H-pyrrolo[1,2-c]imidazol-1-yl)-2-(6-(4-(8-(3-(2,4-dioxotetrahydropyrimidin-1(2H)-yl)benzyl)-3,8-diazabicyclo[3.2.1]octan-3-yl)phenyl)-4-fluoro-1-oxoisoindolin-2-yl)-N-(thiazol-2-yl)acetamide], the negative-log IC50 (pIC50) is greater than 6.30.
